Positions of bridges follow the written chain, without caps; N, C: chain ends. Non-standard residues stand in square brackets, D forms with d. Residues, ends and D or L forms follow the SMILES beside them. Mpa = O=C(O)CCS
Experiments:
[1] = Oxytocic activity in rat uterus in presence of Mg2+; type: functional
[2] = Retardation factor of the compound in butan-1-ol-acetic acid-water (4:1:5 v/v) by TLC analysis; type: physicochemical; details: buffer
[3] = Oxytocic activity in rat uterus in absence of Mg2+; type: functional
Rattus norvegicus [4] = assay: Antidiuretic activity in iv dosed rat; type: functional, Urine
[5] = Retardation factor of the compound in butan-1-ol-water (1:1 v/v) by TLC analysis; type: physicochemical; details: buffer
[6] = Retardation factor of the compound in ethyl acetate-pyridine-acetic acid-water (5:5:1:3 v/v) by TLC analysis; type: physicochemical; details: buffer
Rattus norvegicus [7] = species: Rattus norvegicus; assay: Vasopressor activity in rat; type: organism-based; details: in vivo
Rattus norvegicus [8] = species: Rattus norvegicus; assay: Ratio of antidiuretic activity in rat to vasopressor activity in rat; set-up: species or system Urine
Rattus norvegicus [9] = assay: Antidiuretic activity in sc dosed Brattleboro rat assessed as spontaneous urine output measured every 1 hr for 24 hrs; type: functional
Rattus norvegicus [10] = species: Rattus norvegicus; assay: Ratio of antidiuretic activity in Brattleboro rat to vasopressor activity in rat; set-up: species or system Urine

Compound	Rf [2]	Rf [5]	Rf [6]	Activity (Rattus norvegicus [7]) [U/mg]	Activity [1] [U/mg]	Activity [3] [U/mg]	Activity (Rattus norvegicus [4]) [U/mg]	Ratio (Rattus norvegicus [8])	Activity (Rattus norvegicus [9]) [U/mg]	Ratio (Rattus norvegicus [10])
NC(=O)CC[C@@H]1NC(=O)[C@H](Cc2ccccc2)NC(=O)[C@H](Cc2ccc(O)cc2)NC(=O)[C@@H](O)CSSC[C@@H](C(=O)N2CCC[C@H]2C(=O)N[C@@H](CCCN=C(N)N)C(=O)NCC(N)=O)NC(=O)[C@H](CC(N)=O)NC1=O	0.45	0.22	0.68	549	96	31	467	0.9	–	–
NC(=O)CC[C@@H]1NC(=O)[C@H](Cc2ccccc2)NC(=O)[C@H](Cc2ccc(O)cc2)NC(=O)[C@@H](O)CSSC[C@@H](C(=O)N2CCC[C@H]2C(=O)N[C@H](CCCN=C(N)N)C(=O)NCC(N)=O)NC(=O)[C@H](CC(N)=O)NC1=O	0.45	0.22	0.68	0.86	2.6	4.3	886	1030	–	–
CC(C)[C@@H]1NC(=O)[C@H](Cc2ccccc2)NC(=O)[C@H](Cc2ccc(O)cc2)NC(=O)[C@@H](O)CSSC[C@@H](C(=O)N2CCC[C@H]2C(=O)N[C@H](CCCN=C(N)N)C(=O)NCC(N)=O)NC(=O)[C@H](CC(N)=O)NC1=O	0.68	0.48	0.85	< 0.02	2.8	1.1	892	>45000	–	–
N=C(N)NCCC[C@H](NC(=O)[C@@H]1CCCN1C(=O)[C@@H]1CSSCCC(=O)N[C@@H](Cc2ccc(O)cc2)C(=O)N[C@@H](Cc2ccccc2)C(=O)N[C@@H](CCC(N)=O)C(=O)N[C@@H](CC(N)=O)C(=O)N1)C(=O)NCC(N)=O [DESMOPRESSIN]	–	–	–	–	167	54	–	–	–	–
NC(=O)CC[C@@H]1NC(=O)[C@H](Cc2ccccc2)NC(=O)[C@H](Cc2ccc(O)cc2)NC(=O)[C@@H](N)CSSC[C@@H](C(=O)N2CCC[C@H]2C(=O)N[C@@H](CCCN=C(N)N)C(=O)NCC(N)=O)NC(=O)[C@H](CC(N)=O)NC1=O [VASOPRESSIN]	–	–	–	382	57	16	–	–	330	0.9

More lines, main results first:

Rf [2]	Rf [5]	Rf [6]	Activity (Rattus norvegicus [7]) [U/mg]	Compound	Activity [1] [U/mg]	Activity [3] [U/mg]	Activity (Rattus norvegicus [4]) [U/mg]	Ratio (Rattus norvegicus [8])	Activity (Rattus norvegicus [9]) [U/mg]	Ratio (Rattus norvegicus [10])
–	–	–	0.037	CC(C)[C@@H]1NC(=O)[C@H](Cc2ccccc2)NC(=O)[C@H](Cc2ccc(O)cc2)NC(=O)[C@@H](N)CSSC[C@@H](C(=O)N2CCC[C@H]2C(=O)N[C@H](CCCN=C(N)N)C(=O)NCC(N)=O)NC(=O)[C@H](CC(N)=O)NC1=O	0.9	0.6	653	17650	–	–
–	–	–	< 0.01	CC(C)[C@@H]1NC(=O)[C@H](Cc2ccccc2)NC(=O)[C@H](Cc2ccc(O)cc2)NC(=O)CCSSC[C@@H](C(=O)N2CCC[C@H]2C(=O)N[C@H](CCCNC(=N)N)C(=O)NCC(N)=O)NC(=O)[C@H](CC(N)=O)NC1=O ([Mpa]YFVNCP[dR]G-NH2; disulfide 1-6)	2	8	–	–	1230	>123000

Reference: ChEMBL document CHEMBL3272351, “[1-(L-2-hydroxy-3-mercaptopropanoic acid)] analogues of arginine-vasopressin, [8-D-arginine]vasopressin, and [4-valine,8-D-arginine]vasopressin” (J Med Chem, 1977)
